The values below come from patent US20230183647A1, “METHOD FOR GENERATING FUNCTIONAL SKELETAL MUSCLE FIBERS INNERVATED BY MOTONEURONS” (ASSOCIATION FRANCAISE CONTRE LES MYOPATHIES (AFM), priority 2020, published 2023).

“Also recorded” adds a separate entry of the source.

The test system of assay [1] is hiPSC-derived myofibers. Type of assay: cell-based, human.
The subject of assay [2] is hiPSC-derived innervated myofibers. Nature of the assay: Transient Calcium influx (Calcium handling) in hiPSC-derived innervated myofibers after drug addition. The format is cell-based, human. The note with it: for Calcium release: cells at D45, single addition. As to the method: A-D. We measured the transient Calcium influx in control myofibers prior to drug addition (0 hr) and at different time points after a single addition of different concentrations of each drug. Violin plots display the number of influx per minute and per fiber (n>50). Statistical significance was determined using ANOVA multiple comparison test followed by Brown-Forsythe and Welch correction and comparison to the basal condition (prior to drug addition). A. 0; 2 and 20 μM for Glutamate, B. 0; 1 and 10 μM for Salbutamol. C. 0; 0.5 and 1 mM for Carisoprodol. D. 0; 10 and 100 μM for Mexiletine.
Calcium transients were measured after addition to the cell culture medium of FLUO-8AM fluorescent Ca^2+ indicator (AAT Bioquest). Cells were incubated for 30 min at 37° c in DM+I medium containing 5 μM Fluo8-AM and 0.04% Pluronic acid before imaging on a Fast Imaging Observer system (Axio Observer.Z1/7; Zeiss) with a 10× lens (10×/0.30 M27 DIC I EC Plan-Neofluar; […]). Fluorescence was excited at 488 nm and emission collected at >509 nm. Images were acquired as time series. Different regions were tracked to record the fluorescent intensity at a 10× magnification during 30 seconds and an interval of 200,0 ms corresponding to 151 frames. Analysis was performed using the Zen pro software (Zeiss). ROI was created for selected fibers then intensity mean for each fiber was exported and Calcium transients were calculated by counting the number of peaks intensity for each graph.
For drug treatment, cells were seeded and differentiated in 6 to 12-well plates for 45 days. We tested the activity of Mexiletine (M2727, Sigma Aldrich, 10; 100 μM diluted in methanol), Carisoprodol (C8759, Sigma Aldrich, […]; […] diluted in ethanol), Salbutamol (S8260, Sigma Aldrich, 1 μM; 10 μM, diliuted in methanol) and L-Glutamic acid potassium salt monohydrate (G1501, Sigma Aldrich, 2 μM; 20 μM diluted in H2O) added at 0.1% in the culture medium on fiber contractions. Cell contractions were captured as described for Calcium handling measurements.
To evaluate the potential application of hiPSC-derived innervated myofibers as a preclinical model for drug testing, we tested the response to different classes of pharmaceutical agents by real time video microscopy and Calcium handling analysis. Cells at D45 were treated for different durations with different concentrations of each molecule at (FIG. 8A-D).

`NC1=N[C@H](O)[C@H]2[C@H]3O[C@]4(O)O[C@@H]([C@@H](O)[C@@]2(N1)[C@@H]4O)[C@]3(O)CO` [Tetrodotoxin]: the “cell contraction after drug addition (mean number of contractions)” value in assay [1] is on record as “irreversibly blocked; also recorded: irreversibly inhibits cell contraction”.

Regarding `N[C@@H](CCC(=O)[O-])C(=O)[O-].O.[K+].[K+]` [Glutamate, L-Glutamic acid potassium salt monohydrate], the Calcium release entry is “did not observe any difference” in assay [2] (2 μM) and “increased activity 20 to 30 minutes” in assay [2] (20 μM).

Regarding `CCCC(C)(COC(N)=O)COC(=O)NC(C)C` (centres unmarked) [Carisoprodol], the “muscle contraction (Calcium influx)” value in assay [2] (0.5 to 1 mM, cells at D45) is recorded as “reduces muscle contraction 3 to 4 hrs”.

Turning to `Cc1cccc(C)c1OCC(C)N` (centres unmarked) [Mexiletine], the Calcium handling entry in assay [2] (10 μM, cells at D45) is on record as “decrease in Calcium handling 2 hrs”; in assay [2] (100 μM, cells at D45) it was “sharp decrease 1 to 2 hrs”.

Regarding Alpha Bungarotoxin, the “cell contraction after drug addition (mean number of contractions)” value in assay [1] is reported as “irreversibly blocked; also recorded: irreversibly inhibits cell contraction”.

Consider `CC(C)(C)NCC(O)c1ccc(O)c(CO)c1` (centres unmarked) [Salbutamol], for which, in assay [2] (1 μM and 10 μM, cells at D45), the “Ca2+ handling” value is “decreases Ca^2+ handling as early as 4 hours”.
